± gives the standard deviation of the averaged measurements.
Experiments:
Assay in all cases: level (log10 ratio to DMSO vehicle control); higher = higher biomarker level / cell amount than vehicle control
[1] = compound: FC(F)(F)C(F)(C(F)(F)F)C(F)(F)C(F)(F)CC1CO1 [3-(Perfluoro-3-methylbutyl)-1,2-propenoxide]; conditions: in DMSO
Method: (§1)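 BioMAP Diversity Plus panel of 12 human primary cell co-culture systems (3C, 4H, LPS, SAg, BT, BF4T, BE3C, CASM3C, HDF3CGF, KF3CT, MyoF, Mphg). Compounds were added 1 h before stimulation and left for 24 h (MyoF 48 h; BT 72 h for soluble read-outs or 6 d for IgG). Biomarkers were read by ELISA, cytotoxicity by SRB, PBMC viability and proliferation by Alamar Blue. Each well value was divided by the mean of 8 DMSO control wells on the same plate and log10 transformed; duplicate blinded samples were tested at 4 concentrations.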

[2] = compound: FC(F)(F)C(F)(F)C(F)(F)C(F)(F)C(F)(F)C(F)(F)C(F)(F)C(F)(F)CCS [2-(Perfluorooctyl)ethanthiol]; conditions: in DMSO
Method: as §1

[3] = compound: FC(F)(F)C(F)(F)C(F)(F)C(F)(F)C(F)(F)C(F)(F)I [Perfluoro-1-iodohexane]; conditions: in DMSO
Method: as §1

[4] = compound: O=C(O)C(F)(F)C(F)(F)C(F)(F)C(F)(F)C(F)(F)C(F)(F)C(F)(F)C(F)F [9-H-Perfluorononanoic acid]; conditions: in DMSO
Method: as §1

[5] = compound: O=C(O)C(F)(F)C(F)(F)C(F)(F)C(F)(F)C(F)(F)C(F)(F)F [Perfluoroheptanoic acid]; conditions: in DMSO
Method: as §1

[6] = compound: O=C(O)C(F)(F)C(F)(F)C(F)(F)F [Perfluorobutanoic acid]; conditions: in DMSO
Method: as §1

[7] = compound: O=C(O)C(F)(F)C(F)(F)C(F)F [4H-Perfluorobutanoic acid]; conditions: in DMSO
Method: as §1

[8] = compound: OCCCC(F)(F)C(F)(F)C(F)(F)C(F)(F)C(F)(F)C(F)(F)C(F)(F)F [7:3 Fluorotelomer alcohol]; conditions: 6700 nM; in DMSO
Method: as §1

| Test System | level (log10) ([1]; 6700 nM) | level (log10) ([1]; 20000 nM) | level (log10) ([2]; 6700 nM) | level (log10) ([2]; 20000 nM) | level (log10) ([3]; 6700 nM) | level (log10) ([3]; 20000 nM) | level (log10) ([3]; 60000 nM) | level (log10) ([4]; 6700 nM) | level (log10) ([4]; 20000 nM) | level (log10) ([4]; 60000 nM) | level (log10) ([5]; 6700 nM) | level (log10) ([5]; 20000 nM) | level (log10) ([5]; 60000 nM) | level (log10) ([6]; 6700 nM) | level (log10) ([6]; 20000 nM) | level (log10) ([6]; 60000 nM) | level (log10) ([7]; 6700 nM) | level (log10) ([7]; 20000 nM) | level (log10) ([7]; 60000 nM) | level (log10) [8] |
| --- | --- | --- | --- | --- | --- | --- | --- | --- | --- | --- | --- | --- | --- | --- | --- | --- | --- | --- | --- | --- |
| SAg:CXCL9/MIG | -0.0255 ± 0.005 | -0.002 ± 0.018 | 0.0015 ± 0.016 | 0.01 ± 0.0042 | -0.0205 ± 0.028 | -0.005 ± 0.014 | 0.0045 ± 0.032 | -0.01 ± 0.017 | -0.0055 ± 0.015 | 0.0055 ± 0.0064 | -0.0125 ± 0.0078 | 0.0015 ± 0.0064 | 0.0105 ± 0.011 | -0.0045 ± 0.005 | -0.003 ± 0.016 | -0.0065 ± 0.005 | -0.0115 ± 0.00071 | -0.0035 ± 0.0078 | 0.0095 ± 0.016 | -0.0145 ± 0.005 |
| LPS:CD142/Tissue Factor | -0.017 ± 0.088 | 0.031 ± 0.096 | 0.0455 ± 0.081 | 0.097 ± 0.065 | -0.018 ± 0.038 | 0.0045 ± 0.0021 | 0.0045 ± 0.011 | -0.03 ± 0.021 | -0.024 ± 0.011 | 0.0785 ± 0.039 | -0.0025 ± 0.005 | -0.007 ± 0.013 | 0.0245 ± 0.005 | 0.0045 ± 0.037 | -0.0205 ± 0.00071 | -0.0045 ± 0.019 | -0.0205 ± 0.032 | 0.015 ± 0.033 | 0.0185 ± 0.0092 | -0.0245 ± 0.0064 |
| LPS:CD40 | -0.0195 ± 0.015 | -0.007 ± 0.034 | -0.034 ± 0.055 | -0.0305 ± 0.11 | 0.058 ± 0.0014 | 0.0375 ± 0.005 | -0.0135 ± 0.061 | -0.027 ± 0.023 | -0.033 ± 0.016 | -0.0655 ± 0.021 | -0.0135 ± 0.043 | 0.0055 ± 0.00071 | -0.0515 ± 0.079 | 0.0245 ± 0.061 | 0 ± 0.03 | -0.0095 ± 0.022 | -0.0365 ± 0.022 | -0.0355 ± 0.021 | 0.015 ± 0.031 | 0.0345 ± 0.005 |
| BE3C:CD54/ICAM-1 | -0.0095 ± 0.019 | -0.0065 ± 0.0092 | -0.0055 ± 0.028 | -0.0055 ± 0.015 | -0.006 ± 0.0014 | -0.0125 ± 0.015 | -0.005 ± 0.014 | -0.0435 ± 0.012 | -0.043 ± 0.0042 | -0.071 ± 0.0057 | -0.007 ± 0.0071 | -0.023 ± 0.0028 | -0.0055 ± 0.022 | -0.0015 ± 0.023 | -0.0165 ± 0.0092 | 0.011 ± 0.025 | -0.0085 ± 0.0021 | -0.0245 ± 0.00071 | 0.0125 ± 0.033 | -0.0125 ± 0.00071 |
| 3C:Proliferation | -0.014 ± 0.016 | -0.002 ± 0.042 | 0.0355 ± 0.029 | -0.016 ± 0.013 | -0.0215 ± 0.0064 | -0.0205 ± 0.013 | -0.041 ± 0.041 | -0.013 ± 0.017 | 0.004 ± 0.037 | -0.023 ± 0.031 | -0.0365 ± 0.028 | 0.0245 ± 0.057 | -0.109 ± 0.057 | -0.0225 ± 0.084 | -0.02 ± 0.061 | 0.024 ± 0.042 | -0.023 ± 0.02 | -0.03 ± 0.041 | 0.013 ± 0.065 | -0.093 ± 0.095 |
| BF4T:CD54/ICAM-1 | 0.0005 ± 0.018 | -0.011 ± 0.021 | 0.0025 ± 0.005 | -0.003 ± 0.0014 | -0.004 ± 0.0057 | 0.0045 ± 0.013 | 0 ± 0.0057 | -0.0775 ± 0.0092 | -0.088 ± 0.0028 | -0.0795 ± 0.00071 | -0.022 ± 0.0071 | -0.011 ± 0.0085 | 0.004 ± 0.0071 | 0.007 ± 0.0057 | -0.002 ± 0.0071 | -0.002 ± 0.018 | 0.002 ± 0.0085 | -0.0025 ± 0.032 | 0.0075 ± 0.032 | -0.0065 ± 0.022 |
| LPS:CD69 | -0.023 ± 0.027 | -0.004 ± 0.0057 | 0.019 ± 0.024 | 0.0125 ± 0.043 | -0.0185 ± 0.0064 | -0.0025 ± 0.0035 | -0.032 ± 0.0099 | -0.018 ± 0.0028 | -0.0275 ± 0.039 | -0.0575 ± 0.0035 | -0.0095 ± 0.0035 | -0.025 | -0.057 ± 0.013 | -0.0005 ± 0.081 | 0.0145 ± 0.088 | 0.002 ± 0.075 | 0.024 ± 0.035 | 0.02 ± 0.034 | 0.028 ± 0.028 | -0.007 ± 0.0014 |
| SAg:PBMC Cytotoxicity | 0.008 ± 0.0071 | 0.016 ± 0.023 | -0.025 ± 0.023 | -0.0015 ± 0.0035 | -0.025 ± 0.023 | -0.014 ± 0.0014 | -0.024 ± 0.028 | 0.007 ± 0.023 | 0.045 ± 0.0099 | 0.0765 ± 0.013 | 0.0255 ± 0.0021 | 0.0095 ± 0.019 | 0.0195 ± 0.026 | -0.0155 ± 0.00071 | -0.013 ± 0.037 | -0.009 ± 0.057 | -0.0205 ± 0.015 | 0.002 ± 0.0042 | 0.017 ± 0.033 | -0.0315 ± 0.018 |
| BE3C:CXCL10/IP-10 | -0.0115 ± 0.023 | -0.0065 ± 0.011 | 0.0405 ± 0.05 | 0.016 ± 0.058 | 0.013 ± 0.018 | 0.0135 ± 0.0078 | 0.0355 ± 0.022 | -0.021 ± 0.0057 | -0.04 ± 0.0042 | -0.149 ± 0.04 | 0.0055 ± 0.022 | 0.0065 ± 0.0092 | 0.0045 ± 0.011 | 0.0065 ± 0.00071 | -0.001 ± 0.011 | 0.0085 ± 0.0078 | -0.006 ± 0.021 | -0.001 ± 0.0099 | 0.017 ± 0.021 | 0.011 ± 0.024 |
| SAg:CCL2/MCP-1 | -0.0225 ± 0.039 | 0.004 ± 0.0085 | -0.0085 ± 0.019 | 0.017 ± 0.0028 | 0.006 ± 0.018 | -0.0045 ± 0.021 | 0.005 ± 0.05 | -0.009 ± 0.014 | -0.022 ± 0.0014 | 0.0245 ± 0.04 | -0.013 ± 0.0085 | 0.0215 ± 0.011 | 0.0215 ± 0.013 | -0.012 ± 0.0028 | -0.014 | 0.0175 ± 0.025 | -0.011 ± 0.038 | -0.0085 ± 0.04 | -0.0065 ± 0.081 | 0.003 ± 0.0014 |
| BE3C:IL-1alpha | 0.002 ± 0.025 | 0.023 ± 0.057 | -0.038 ± 0.0014 | -0.017 ± 0.016 | -0.0155 ± 0.013 | -0.009 ± 0.0014 | -0.0195 ± 0.013 | 0.032 ± 0.0028 | 0.014 ± 0.028 | 0.026 ± 0.0028 | -0.0185 ± 0.029 | -0.0065 ± 0.03 | 0.0115 ± 0.0064 | 0.007 ± 0.018 | 0.0155 ± 0.021 | 0.0225 ± 0.049 | -0.0325 ± 0.0064 | -0.018 ± 0.025 | -0.0045 ± 0.079 | -0.002 ± 0.014 |
| LPS:IL-1alpha | -0.0205 ± 0.011 | 0.0155 ± 0.0092 | -0.045 ± 0.0042 | -0.012 ± 0.055 | -0.048 ± 0.035 | -0.042 ± 0.021 | -0.004 ± 0.0014 | 0.0095 ± 0.042 | -0.0105 ± 0.00071 | -0.014 ± 0.0099 | -0.002 ± 0.0057 | -0.0265 ± 0.0078 | 0.006 ± 0.047 | -0.0225 ± 0.032 | -0.0305 ± 0.019 | -0.0035 ± 0.016 | -0.038 ± 0.0071 | -0.02 ± 0.0085 | -0.0065 ± 0.023 | -0.0615 ± 0.013 |
| BT:sTNF-alpha | 0.0545 ± 0.076 | 0.0925 ± 0.093 | 0.16 ± 0.015 | 0.065 ± 0.035 | 0.009 ± 0.031 | -0.0095 ± 0.14 | -0.0015 ± 0.16 | 0.032 ± 0.069 | 0.076 ± 0.014 | 0.032 ± 0.04 | -0.0045 ± 0.11 | -0.0405 ± 0.05 | -0.064 ± 0.17 | 0.019 ± 0.093 | 0.0875 ± 0.069 | 0.0305 ± 0.023 | -0.0585 ± 0.022 | -0.055 ± 0.0071 | -0.048 ± 0.13 | 0.009 ± 0.028 |
| BT:PBMC Cytotoxicity | -0.0055 ± 0.023 | 0.005 ± 0.013 | -0.0395 ± 0.012 | 0.02 ± 0.0028 | 0.042 ± 0.014 | -0.0045 ± 0.022 | 0.0285 ± 0.0035 | -0.009 ± 0.055 | 0.0435 ± 0.025 | 0.103 | -0.0175 ± 0.0064 | 0.001 ± 0.0057 | 0.063 ± 0.0014 | 0.003 ± 0.011 | 0.0255 ± 0.018 | -0.0175 ± 0.00071 | -0.0175 ± 0.018 | -0.0075 ± 0.0035 | -0.002 ± 0.047 | 0.0245 ± 0.035 |

Source: the supplement of paper PMC10331698
